Results on one compound are retold here after patent publication US20230220443A1, “CHARACTERIZATION OF S-ADENOSYL-L-METHIONINE-CONSUMING ENZYMES WITH 1-STEP EZ-MTASE: A UNIVERSAL COUPLED-ASSAY” (ALBERT EINSTEIN COLLEGE OF MEDICINE, priority 2017, published 2023).

Entries after “also recorded” stand apart in the source; their conditions may differ.

The assay concerns the target T1, NcDIM-5 (Neurospora crassa, UniProt Q8X225).
T1 construct: GST; made in house
T1 sequence (Q8X225 1-331): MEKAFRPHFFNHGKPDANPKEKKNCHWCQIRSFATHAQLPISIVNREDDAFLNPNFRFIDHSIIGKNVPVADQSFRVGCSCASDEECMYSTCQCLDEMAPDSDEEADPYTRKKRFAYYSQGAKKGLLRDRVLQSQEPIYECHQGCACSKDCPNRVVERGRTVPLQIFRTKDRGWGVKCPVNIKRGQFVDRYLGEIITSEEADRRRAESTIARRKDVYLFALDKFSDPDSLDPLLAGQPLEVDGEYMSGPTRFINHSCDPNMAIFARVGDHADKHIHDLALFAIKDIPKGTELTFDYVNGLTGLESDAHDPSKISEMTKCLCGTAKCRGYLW
In kind it is biochemical. The protocol: Kinetic behavior for peptide H3(1-53) against NcDIM-S(SAM sat.)—Experiments were conducted following matching CePRMT5 protocol above. Briefly, the 250-μL reaction mixtures from a same row contained 25 mM glycine buffer pH=9.50, 1 mM βME, 10% glycerol, 50 mM NaCl, 4 μM coupling deaminase TM0936, 7.6 nM NcDIM-5 and various peptide concentrations (0.51-12.68 μM; in the first well, peptide acceptor was omitted to account for background signal—natural decomposition of SAM). Reactions started upon addition of SAM (25.8 μM saturating final concentration) and absorbance was recorded. Initial rates were first corrected for background signal, then plotted against H3(1-53) concentrations. Fit to the Michaelis-Menten equation provided corresponding kinetic parameters.
Kinetic behavior for 8-aza-SAM against MTases (acceptor sat.)—Briefly, kinetic parameters were determined at 20° C. in a UV-Star 96-well flat bottom plate (Greiner Bio-One, #655801) by continuous monitoring of absorbance at 282 nm using a SpectraMax M5 instrument (Molecular Devices). As for SAM experiments, the measurements consisted of two experimental subsets: MTase reactions (both 8-aza-SAM and acceptor added) and MTase blanks (8-aza-SAM was added without acceptor to account for natural 8-aza-SAM decomposition). The 250-μL (60-μL) reaction mixtures from a same row contained 50 mM phosphate buffer pH=7.60 (7.80), 1 mM βME, 10% glycerol (5% glycerol, 100 μM MgCl2), 4 μM coupling deaminase TM0936, either 1.5 μM CePRMT5 or 402 nM TbPRMT7 (or 610 nM GsSDMT) and various 8-aza-SAM concentrations. […] Initial rates were first corrected for background signal, then plotted against 8-aza-SAM concentrations and fitted to the Michaelis-Menten equation to yield corresponding kinetic parameters.
where [MTase] and [8-aza-SAM] are the total concentration of methyltransferase and methyl donor, respectively; Km is the Michaelis constant, Kf is the substrate inhibition constant and kcat is the turnover for 8-aza-SAM substrate.

The mark [1] stands for this setting: pH=9.50, 25 μM SAM, 7.6 nM NcDIM-5.

Regarding `C[S+](CC[C@H](N)C(=O)O)C[C@H]1O[C@@H](n2nnc3c(N)ncnc32)[C@H](O)[C@@H]1O` (stereo partly drawn) [8-aza-SAM, S-8-aza-adenosyl-L-methionine], the “acceptance of cofactor analog as substrate” value is given as “unable to accept; also recorded: unable to process”. Besides, under setting [1], the Km result is on record as “NOT A” and the kcat result is recorded as “NOT A”.
